From patent US10729132B2, “Xylophage control using antimethanogenic reagents” (Environmental Intellectual Property, Inc, priority 2015, dated 2020)

How the values were obtained:
[1] = system: F420-dependent NADP oxidoreductase enzyme from M. smithii; conditions: compared to the natural ligand F420; cited from earlier work
Archaea = assay: Laboratory Study 5: methane concentration in control and test samples with AMRs
Protocol: Use of diallyl sulfide, which may be considered a synthetic garlic oil (GOS), was evaluated for its ability to control Archaea compared to the effects of other potential AMRs such as natural/pressed Garlic Oil (GO) and dehydrated Garlic Powder (GP). Control samples with and without contaminants were captured along with test samples that included contaminants and different concentrations (250 ppm and 500 ppm) of different AMRs (GO, GOS and GP). The concentration of methane in each of the samples was measured at 0, 9, 16 and 23 days.

Compound	affinity for the model protein [1]	length and magnitude of antimethanogenic responses (Archaea; 500 ppm lasting longer than 250 ppm)	control response in terms of methane production (Archaea; after 23 days incubation, 250 ppm and 500 ppm)
CC[C@H](C)C(=O)O[C@H]1CCC=C2C=C[C@H](C)[C@H](CC[C@@H]3C[C@@H](O)CC(=O)O3)[C@H]21 [compactin]	more affinity	–	–
C=CCSCC=C [GOS, diallyl sulfide]	–	concentration dependent	best control response
CC[C@H](C)C(=O)O[C@H]1C[C@@H](C)C=C2C=C[C@H](C)[C@H](CC[C@@H]3C[C@@H](O)CC(=O)O3)[C@H]21 [lovastatin]	more affinity	–	–
